From PubChem BioAssay (NCI)
Several values for one entry are separate records, joined by “and”; a condition that tells them apart may be missing. Equal entries are not always repeated.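 All cell lines were grown in 96-well plates and treated with compound for 48 hours. At the GI50, growth is halved. TGI: total growth inhibition.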

Assays:
Assay in all cases: NCI-60 cell line screen, 48 h
[1] = test system: SF-295 CNS
[2] = test system: 786-0 renal
[3] = test system: RPMI-8226 leukemia
[4] = test system: SK-OV-3 ovarian
[5] = test system: MALME-3M melanoma
[6] = test system: NCI-H522 lung
[7] = test system: HOP-62 NSCLC
[8] = test system: UACC-62 melanoma
[9] = test system: SN12C renal
[10] = test system: MDA-N
[11] = test system: SF-268 CNS

## c1ccc2c(c1)Cn1c-2nc2ccccc21
[1]
  TGI: > 100 µM
[2]
  TGI: > 100 µM
[3]
  TGI: > 100 µM
[4]
  TGI: > 100 µM
[5]
  TGI: > 100 µM
[6]
  TGI: > 100 µM
[7]
  TGI: > 100 µM
[8]
  TGI: > 100 µM
[9]
  TGI: > 100 µM
[10]
  TGI: > 100 µM
[11]
  TGI: > 100 µM

## Nc1nc2c(c(-c3cccc(Cl)c3)n1)COC/C2=C\c1cccc(Cl)c1
[1]
  TGI: > 100 µM
[2]
  TGI: > 100 µM
[3]
  TGI: > 100 µM
[4]
  TGI: > 100 µM
[5]
  TGI: 81.9 µM
[6]
  TGI: > 100 µM
[7]
  TGI: > 100 µM
[8]
  TGI: > 100 µM
[9]
  TGI: > 100 µM
[10]
  TGI: > 100 µM
[11]
  TGI: > 100 µM

## S=C(N/N=C(/c1ccccc1)c1ccccn1)N(Cc1ccccn1)Cc1ccccn1
[1]
  TGI: 1.82 µM
[2]
  TGI: 2.04 µM
[3]
  TGI: 3.38 µM
[4]
  TGI: 1.66 µM
[5]
  TGI: 2.45 µM
[6]
  TGI: 4.5 µM
[7]
  TGI: 3.17 µM
[8]
  TGI: 2.21 µM
[9]
  TGI: 3.47 µM
[10]
  TGI: 7.62 µM
[11]
  TGI: 4.84 µM

## C[C@]12CCC3C4=C(CCC3C1CCC2=O)C(=O)[C@H]1O[C@H]1C4=O (stereo not given in full)
[1]
  TGI: 29.8 µM
[2]
  TGI: 3.94 µM
[3]
  TGI: 4.25 µM
[4]
  TGI: 28 µM
[5]
  TGI: 37.5 µM
[6]
  TGI: 3.36 µM
[7]
  TGI: 12.8 µM
[8]
  TGI: 9.34 µM
[9]
  TGI: 7.71 µM
[10]
  TGI: 19.4 µM
[11]
  TGI: 5.32 µM

## CN(C)CCNS(=O)(=O)c1ccc(N)cc1
[1]
  TGI: > 100 µM
[2]
  TGI: > 100 µM
[3]
  TGI: > 100 µM
[4]
  TGI: > 100 µM
[5]
  TGI: > 100 µM
[6]
  TGI: > 100 µM
[7]
  TGI: 32.4 µM
[8]
  TGI: > 100 µM
[9]
  TGI: > 100 µM
[10]
  TGI: > 100 µM
[11]
  TGI: > 100 µM

## Cc1cc(-c2nc3ccc(F)cc3s2)ccc1NC(=O)[C@H](C)N
[1]
  TGI: 24.7 µM
[2]
  TGI: 16.9 µM
[3]
  TGI: 13.8 µM
[4]
  TGI: 28.2 µM
[5]
  TGI: 36.2 µM
[6]
  TGI: 20.7 µM
[7]
  TGI: 24.5 µM
[8]
  TGI: 3.6 µM
[9]
  TGI: 28.7 µM
[10]
  TGI: 6.19 µM
[11]
  TGI: 22.8 µM

## Cc1ccccc1C(=N)c1ccccc1Cc1cccc2ccccc12
[1]
  TGI: 62.5 µM
[2]
  TGI: 41 µM
[3]
  TGI: 33.3 µM
[4]
  TGI: 98.9 µM
[5]
  TGI: 27.3 µM
[6]
  TGI: 34.6 µM
[7]
  TGI: 43.5 µM
[8]
  TGI: 38.6 µM
[9]
  TGI: 39.5 µM
[10]
  TGI: 65.7 µM
[11]
  TGI: 68.2 µM

## CC(=O)c1c2c(c3ccccc3c1O)O[C@@H]1OCC[C@H]21
[1]
  TGI: > 100 µM
[2]
  TGI: > 100 µM
[3]
  TGI: > 100 µM
[4]
  TGI: > 100 µM
[5]
  TGI: > 100 µM
[6]
  TGI: > 100 µM
[7]
  TGI: > 100 µM
[8]
  TGI: > 100 µM
[9]
  TGI: > 100 µM
[10]
  TGI: > 100 µM
[11]
  TGI: > 100 µM

## CC1=Nc2ccccc2OC(C)=C1N=Nc1ccc2nc(C)[nH]c2c1
[1]
  TGI: > 100 µM
[2]
  TGI: > 100 µM
[3]
  TGI: > 100 µM
[4]
  TGI: > 100 µM
[5]
  TGI: > 100 µM
[6]
  TGI: > 100 µM
[7]
  TGI: > 100 µM
[8]
  TGI: > 100 µM
[9]
  TGI: > 100 µM
[10]
  TGI: > 100 µM
[11]
  TGI: > 100 µM

## [N-]=[N+]=NC(c1ccccc1)(c1ccccc1)c1ccccc1
[1]
  TGI: 27.1 µM
[2]
  TGI: 31.5 µM
[3]
  TGI: 62.6 µM
[4]
  TGI: > 100 µM
[5]
  TGI: 29.5 µM
[6]
  TGI: 33.5 µM
[7]
  TGI: 42.2 µM
[8]
  TGI: 31.4 µM
[9]
  TGI: 30.9 µM
[10]
  TGI: 31.4 µM
[11]
  TGI: 35.7 µM

## CC1CN(C)c2ccccc2N=C1NN (stereo not given)
[1]
  TGI: > 100 µM
[2]
  TGI: > 100 µM
[3]
  TGI: > 100 µM
[4]
  TGI: > 100 µM
[5]
  TGI: > 100 µM
[6]
  TGI: > 100 µM
[7]
  TGI: > 100 µM
[8]
  TGI: > 100 µM
[9]
  TGI: > 100 µM
[10]
  TGI: > 100 µM
[11]
  TGI: > 100 µM

## Cc1ccc(-c2cc(-c3ccco3)c(C#N)c(=S)n2C2OC(CO)C(O)C(O)C2O)cc1 (stereo not given)
[1]
  GI50: 11.8 µM and 28.6 µM
  TGI: 31.3 µM and > 100 µM
[2]
  TGI: > 100 µM
[3]
  TGI: > 100 µM and 89.8 µM
[4]
  GI50: 2.51 µM and 21.9 µM
  TGI: 10.7 µM and > 100 µM
[5]
  TGI: > 100 µM
[6]
  GI50: 29.5 µM and 65.4 µM
  TGI: > 100 µM
[7]
  GI50: 6.31 µM and 28 µM
  TGI: 54.1 µM and > 100 µM
[8]
  TGI: 13.3 µM and > 100 µM
[9]
  GI50: 20.6 µM and > 100 µM
  TGI: > 100 µM
[10]
  TGI: > 100 µM
[11]
  GI50: 44.8 µM
  TGI: > 100 µM

## C=C1CCN2CC[C@@H](OC(=O)/C(C)=C\C)[C@@H]12
[1]
  TGI: > 100 µM
[2]
  TGI: > 100 µM
[3]
  TGI: > 100 µM
[4]
  TGI: > 100 µM
[5]
  TGI: > 100 µM
[6]
  TGI: > 100 µM
[7]
  TGI: > 100 µM
[8]
  TGI: > 100 µM
[9]
  TGI: > 100 µM
[10]
  TGI: > 100 µM
[11]
  TGI: > 100 µM

## CC(C)=CCC[C@@H](C)c1c(O)c(O)c(C)c2nccnc12
[1]
  TGI: > 71.2 µM
[2]
  TGI: > 100 µM
[3]
  TGI: > 62.7 µM
[4]
  TGI: > 100 µM
[5]
  TGI: 66.7 µM
[6]
  TGI: 23.6 µM
[7]
  TGI: > 77.9 µM
[8]
  TGI: 50.5 µM
[9]
  TGI: > 100 µM
[10]
  TGI: > 100 µM
[11]
  TGI: > 100 µM

## N#CC(Cc1ccccc1)N(CCC1=CCCCC1)C(c1ccccc1)c1ccccc1 (stereo not given)
[1]
  TGI: > 100 µM
[2]
  TGI: > 100 µM
[3]
  TGI: > 100 µM
[4]
  TGI: > 100 µM
[5]
  TGI: > 100 µM
[6]
  TGI: 65.9 µM
[7]
  TGI: > 100 µM
[8]
  TGI: > 100 µM
[10]
  TGI: > 100 µM
[11]
  TGI: > 100 µM
